Measurements taken from publication PMC7385619, “A triple action CDK4/6-PI3K-BET inhibitor with augmented cancer cell cytotoxicity” (Cell Discovery, 2020).
Like-named read-outs stand apart in the source and are kept apart here.

How the values were obtained:
Test in all cases: KINOMEscan assay (Eurofins DiscoverX)
Assay type in all cases: binding
[1] = molecular target: T1, kinome (kinase panel) (Homo sapiens, UniProt O75582); details: 1000 nM, read-out: Percent Control
T1 construct: purchased Eurofins DiscoverX
T1 sequence (O75582 whole entry): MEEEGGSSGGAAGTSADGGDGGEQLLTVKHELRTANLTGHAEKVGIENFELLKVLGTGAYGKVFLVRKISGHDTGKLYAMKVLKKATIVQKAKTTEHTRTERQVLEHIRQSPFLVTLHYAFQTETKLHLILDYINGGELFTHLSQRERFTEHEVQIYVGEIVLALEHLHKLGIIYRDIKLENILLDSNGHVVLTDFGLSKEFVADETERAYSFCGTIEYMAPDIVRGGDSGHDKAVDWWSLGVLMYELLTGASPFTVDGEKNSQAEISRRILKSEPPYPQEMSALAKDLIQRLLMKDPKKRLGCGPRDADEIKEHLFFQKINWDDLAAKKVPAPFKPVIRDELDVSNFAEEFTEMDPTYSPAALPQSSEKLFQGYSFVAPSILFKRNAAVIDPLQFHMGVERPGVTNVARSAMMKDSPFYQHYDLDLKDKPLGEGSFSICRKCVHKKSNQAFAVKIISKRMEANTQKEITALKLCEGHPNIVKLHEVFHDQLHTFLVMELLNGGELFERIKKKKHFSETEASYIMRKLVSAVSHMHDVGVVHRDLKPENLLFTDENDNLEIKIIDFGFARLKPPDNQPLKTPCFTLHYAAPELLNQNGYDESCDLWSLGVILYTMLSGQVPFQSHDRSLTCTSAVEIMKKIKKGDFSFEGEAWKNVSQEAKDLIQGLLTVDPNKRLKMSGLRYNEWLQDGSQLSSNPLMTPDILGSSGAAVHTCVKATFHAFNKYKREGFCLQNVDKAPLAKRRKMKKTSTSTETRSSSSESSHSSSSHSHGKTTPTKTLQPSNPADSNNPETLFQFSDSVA

[2] = molecular target: T2, kinome (kinase panel) (Homo sapiens, UniProt O75676); details: 1000 nM, read-out: Percent Control
T2 construct: purchased Eurofins DiscoverX
T2 sequence (O75676 whole entry): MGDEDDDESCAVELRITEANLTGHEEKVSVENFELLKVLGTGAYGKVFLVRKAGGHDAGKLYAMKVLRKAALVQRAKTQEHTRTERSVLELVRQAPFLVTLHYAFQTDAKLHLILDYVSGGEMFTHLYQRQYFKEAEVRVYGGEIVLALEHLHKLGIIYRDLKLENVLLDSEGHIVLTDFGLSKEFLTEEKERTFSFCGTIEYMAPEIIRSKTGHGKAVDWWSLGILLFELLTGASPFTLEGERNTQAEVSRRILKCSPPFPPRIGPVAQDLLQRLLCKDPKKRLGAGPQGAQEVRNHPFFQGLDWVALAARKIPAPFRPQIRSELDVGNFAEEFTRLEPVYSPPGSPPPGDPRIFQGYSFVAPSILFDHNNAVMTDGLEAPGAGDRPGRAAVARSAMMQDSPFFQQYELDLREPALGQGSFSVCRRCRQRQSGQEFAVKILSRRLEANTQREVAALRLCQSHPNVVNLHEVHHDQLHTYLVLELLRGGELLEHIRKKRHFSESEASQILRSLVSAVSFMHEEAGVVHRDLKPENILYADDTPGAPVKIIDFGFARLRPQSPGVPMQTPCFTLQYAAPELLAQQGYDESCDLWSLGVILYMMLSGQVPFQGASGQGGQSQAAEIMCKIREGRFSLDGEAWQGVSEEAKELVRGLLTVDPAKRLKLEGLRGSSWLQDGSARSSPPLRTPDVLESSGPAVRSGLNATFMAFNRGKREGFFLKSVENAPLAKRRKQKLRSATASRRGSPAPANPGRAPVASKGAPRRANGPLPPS

[3] = molecular target: T3, kinome (kinase panel) (Homo sapiens, UniProt P00519, M351T); details: read-out: Percent Control
T3 construct: purchased Eurofins DiscoverX

[4] = molecular target: T4, kinome (kinase panel) (Homo sapiens, UniProt P00519, Y253F); details: read-out: Percent Control
T4 construct: purchased Eurofins DiscoverX

[5] = molecular target: T5, kinome (kinase panel) (Homo sapiens, UniProt P00533, DEL752-759); details: EGFR(S752-I759del); 1000 nM; read-out: Percent Control
T5 construct: purchased Eurofins DiscoverX

[6] = molecular target: T6, kinome (kinase panel) (Homo sapiens, UniProt P04626); details: ERBB2; 1000 nM; read-out: Percent Control
T6 construct: purchased Eurofins DiscoverX

[7] = molecular target: T7, kinome (kinase panel) (Homo sapiens, UniProt P07948); details: LYN; 1000 nM; read-out: Percent Control
T7 construct: purchased Eurofins DiscoverX

[8] = molecular target: T8, kinome (kinase panel) (Homo sapiens, UniProt P11309); details: PIM1; 1000 nM; read-out: Percent Control
T8 construct: purchased Eurofins DiscoverX

[9] = molecular target: T9, kinome (kinase panel) (Homo sapiens, UniProt P21860); details: ERBB3; 1000 nM; read-out: Percent Control
T9 construct: purchased Eurofins DiscoverX

[10] = molecular target: T10, kinome (kinase panel) (Homo sapiens, UniProt P22607); details: FGFR3; 1000 nM; read-out: Percent Control
T10 construct: purchased Eurofins DiscoverX

[11] = molecular target: T11, kinome (kinase panel) (Homo sapiens, UniProt P32298); details: GRK4; 1000 nM; read-out: Percent Control
T11 construct: purchased Eurofins DiscoverX

[12] = molecular target: T12, kinome (kinase panel) (Homo sapiens, UniProt P36888, D835H); details: […]; 1000 nM; read-out: Percent Control
T12 construct: purchased Eurofins DiscoverX

[13] = molecular target: T13, kinome (kinase panel) (Homo sapiens, UniProt P36888, D835Y); details: […]; 1000 nM; read-out: Percent Control
T13 construct: purchased Eurofins DiscoverX

[14] = molecular target: T14, kinome (kinase panel) (Homo sapiens, UniProt P42336, E545K); details: read-out: Percent Control
T14 construct: purchased Eurofins DiscoverX

[15] = molecular target: T15, kinome (kinase panel) (Homo sapiens, UniProt P42336, H1047L); details: read-out: Percent Control
T15 construct: purchased Eurofins DiscoverX

[16] = molecular target: T16, kinome (kinase panel) (Homo sapiens, UniProt P42336, I800L); details: read-out: Percent Control
T16 construct: purchased Eurofins DiscoverX

[17] = molecular target: T17, kinome (kinase panel) (Homo sapiens, UniProt Q04759); details: PRKCQ; 1000 nM; read-out: Percent Control
T17 construct: purchased Eurofins DiscoverX

[18] = molecular target: T18, kinome (kinase panel) (Homo sapiens, UniProt Q07002); details: PCTK3 (Entrez CDK18); 1000 nM; read-out: Percent Control
T18 construct: purchased Eurofins DiscoverX

[19] = molecular target: T19, kinome (kinase panel) (Homo sapiens, UniProt Q15418); details: 1000 nM, read-out: Percent Control
T19 construct: purchased Eurofins DiscoverX
T19 sequence (Q15418 whole entry): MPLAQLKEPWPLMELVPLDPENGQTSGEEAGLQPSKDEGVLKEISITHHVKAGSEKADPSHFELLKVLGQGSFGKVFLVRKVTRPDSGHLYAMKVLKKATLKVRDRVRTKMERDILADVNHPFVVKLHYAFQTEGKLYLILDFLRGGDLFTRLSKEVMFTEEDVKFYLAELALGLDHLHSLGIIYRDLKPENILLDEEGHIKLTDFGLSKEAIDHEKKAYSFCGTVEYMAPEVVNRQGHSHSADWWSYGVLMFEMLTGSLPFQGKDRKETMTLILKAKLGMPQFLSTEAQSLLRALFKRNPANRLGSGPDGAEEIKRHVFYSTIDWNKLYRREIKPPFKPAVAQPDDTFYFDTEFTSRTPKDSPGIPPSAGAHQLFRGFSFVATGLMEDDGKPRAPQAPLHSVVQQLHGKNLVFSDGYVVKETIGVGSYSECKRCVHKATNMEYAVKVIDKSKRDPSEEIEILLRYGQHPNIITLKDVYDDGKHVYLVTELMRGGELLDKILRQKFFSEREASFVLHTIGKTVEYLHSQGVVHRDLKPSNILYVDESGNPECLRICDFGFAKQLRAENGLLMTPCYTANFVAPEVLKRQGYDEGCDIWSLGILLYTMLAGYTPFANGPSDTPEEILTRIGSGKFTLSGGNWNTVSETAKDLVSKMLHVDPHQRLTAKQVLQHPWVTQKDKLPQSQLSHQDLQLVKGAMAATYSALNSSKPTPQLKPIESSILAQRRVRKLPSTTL

[20] = molecular target: T20, kinome (kinase panel) (Homo sapiens, UniProt Q5VT25); details: MRCKA (Entrez CDC42BPA); 1000 nM; read-out: Percent Control
T20 construct: purchased Eurofins DiscoverX
T20 sequence (Q5VT25 whole entry): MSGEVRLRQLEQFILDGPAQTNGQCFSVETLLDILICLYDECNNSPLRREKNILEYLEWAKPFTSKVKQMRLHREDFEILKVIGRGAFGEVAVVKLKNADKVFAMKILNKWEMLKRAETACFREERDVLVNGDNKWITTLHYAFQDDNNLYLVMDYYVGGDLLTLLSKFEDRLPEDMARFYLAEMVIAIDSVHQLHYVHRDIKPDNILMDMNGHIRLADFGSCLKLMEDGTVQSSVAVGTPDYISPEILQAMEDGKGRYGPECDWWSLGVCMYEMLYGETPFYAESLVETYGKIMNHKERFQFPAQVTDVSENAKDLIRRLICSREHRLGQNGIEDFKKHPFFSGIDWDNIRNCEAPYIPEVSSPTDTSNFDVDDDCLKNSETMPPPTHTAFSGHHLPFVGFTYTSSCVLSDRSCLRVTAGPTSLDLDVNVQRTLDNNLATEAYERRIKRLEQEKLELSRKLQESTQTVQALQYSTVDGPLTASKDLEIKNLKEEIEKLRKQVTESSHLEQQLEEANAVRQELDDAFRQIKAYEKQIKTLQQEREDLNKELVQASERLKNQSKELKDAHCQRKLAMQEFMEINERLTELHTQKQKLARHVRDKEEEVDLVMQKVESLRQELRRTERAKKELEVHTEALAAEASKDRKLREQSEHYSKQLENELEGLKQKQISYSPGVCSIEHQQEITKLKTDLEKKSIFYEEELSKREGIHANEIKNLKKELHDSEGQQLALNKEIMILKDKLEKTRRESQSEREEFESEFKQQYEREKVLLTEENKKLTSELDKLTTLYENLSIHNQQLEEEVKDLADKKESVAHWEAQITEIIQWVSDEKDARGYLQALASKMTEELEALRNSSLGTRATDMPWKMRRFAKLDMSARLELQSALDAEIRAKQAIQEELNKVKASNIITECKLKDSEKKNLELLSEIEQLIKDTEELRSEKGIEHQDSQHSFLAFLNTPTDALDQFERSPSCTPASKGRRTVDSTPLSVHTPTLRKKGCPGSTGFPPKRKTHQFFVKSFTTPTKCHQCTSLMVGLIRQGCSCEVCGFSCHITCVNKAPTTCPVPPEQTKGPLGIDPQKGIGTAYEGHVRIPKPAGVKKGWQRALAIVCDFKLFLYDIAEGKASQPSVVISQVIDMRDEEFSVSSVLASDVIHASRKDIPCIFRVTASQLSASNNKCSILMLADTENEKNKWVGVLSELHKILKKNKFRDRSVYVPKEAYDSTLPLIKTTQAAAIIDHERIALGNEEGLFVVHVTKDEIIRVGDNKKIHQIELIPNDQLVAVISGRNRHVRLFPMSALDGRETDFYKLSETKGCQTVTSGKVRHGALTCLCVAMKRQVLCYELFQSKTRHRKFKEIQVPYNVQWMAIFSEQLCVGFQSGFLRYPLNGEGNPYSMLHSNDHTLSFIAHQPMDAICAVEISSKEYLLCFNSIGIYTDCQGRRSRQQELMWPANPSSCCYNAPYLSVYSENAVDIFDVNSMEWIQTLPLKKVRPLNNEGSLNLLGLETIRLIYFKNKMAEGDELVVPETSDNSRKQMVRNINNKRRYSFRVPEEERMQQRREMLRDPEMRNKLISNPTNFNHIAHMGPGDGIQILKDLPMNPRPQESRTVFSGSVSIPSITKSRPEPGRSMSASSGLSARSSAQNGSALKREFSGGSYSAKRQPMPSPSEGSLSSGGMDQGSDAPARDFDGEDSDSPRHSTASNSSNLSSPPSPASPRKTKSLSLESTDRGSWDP

[21] = molecular target: T21, kinome (kinase panel) (Homo sapiens, UniProt Q86UE8); details: TLK2; 1000 nM; read-out: Percent Control
T21 construct: purchased Eurofins DiscoverX

[22] = molecular target: T22, kinome (kinase panel) (Homo sapiens, UniProt Q86UX6); details: YANK3 (STK32C); 1000 nM; read-out: Percent Control
T22 construct: purchased Eurofins DiscoverX

[23] = molecular target: T23, kinome (kinase panel) (Homo sapiens, UniProt Q86YV6); details: MYLK4; 1000 nM; read-out: Percent Control
T23 construct: purchased Eurofins DiscoverX
T23 sequence (Q86YV6 whole entry): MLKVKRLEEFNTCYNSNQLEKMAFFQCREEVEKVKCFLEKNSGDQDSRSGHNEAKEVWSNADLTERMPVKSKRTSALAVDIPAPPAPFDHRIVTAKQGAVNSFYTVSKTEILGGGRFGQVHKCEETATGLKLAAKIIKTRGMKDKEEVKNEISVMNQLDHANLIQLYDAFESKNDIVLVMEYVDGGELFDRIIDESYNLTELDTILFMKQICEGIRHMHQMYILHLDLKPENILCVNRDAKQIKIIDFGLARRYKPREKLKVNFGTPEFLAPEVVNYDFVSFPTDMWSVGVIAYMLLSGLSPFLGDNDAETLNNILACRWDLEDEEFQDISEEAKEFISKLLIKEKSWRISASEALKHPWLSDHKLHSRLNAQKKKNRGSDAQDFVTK

[24] = molecular target: T24, kinome (kinase panel) (Homo sapiens, UniProt Q9BUB5); details: MKNK1; 1000 nM; read-out: Percent Control
T24 construct: purchased Eurofins DiscoverX

[25] = molecular target: T25, kinome (kinase panel) (Homo sapiens, UniProt Q9BWU1); details: CDK11 (Entrez CDK19); 1000 nM; read-out: Percent Control
T25 construct: purchased Eurofins DiscoverX

[26] = molecular target: T26, kinome (kinase panel) (Homo sapiens, UniProt Q9BXA7); details: TSSK1B; 1000 nM; read-out: Percent Control
T26 construct: purchased Eurofins DiscoverX

[27] = molecular target: T27, kinome (kinase panel) (Homo sapiens, UniProt Q9H0K1); details: SIK2; 1000 nM; read-out: Percent Control
T27 construct: purchased Eurofins DiscoverX

[28] = molecular target: T28, kinome (kinase panel) (Homo sapiens, UniProt Q9UEE5); details: DRAK1 (Entrez STK17A); 1000 nM; read-out: Percent Control
T28 construct: purchased Eurofins DiscoverX

[29] = molecular target: T29, kinome (kinase panel) (Homo sapiens, UniProt Q9UEW8); details: STK39; 1000 nM; read-out: Percent Control
T29 construct: purchased Eurofins DiscoverX

[30] = molecular target: T30, kinome (kinase panel) (Homo sapiens, UniProt Q9Y463); details: DYRK1B; 1000 nM; read-out: Percent Control
T30 construct: purchased Eurofins DiscoverX

[31] = molecular target: T31, kinome (kinase panel) (Homo sapiens, UniProt Q9Y6M4); details: CSNK1G3; 1000 nM; read-out: Percent Control
T31 construct: purchased Eurofins DiscoverX
T31 sequence (Q9Y6M4 whole entry): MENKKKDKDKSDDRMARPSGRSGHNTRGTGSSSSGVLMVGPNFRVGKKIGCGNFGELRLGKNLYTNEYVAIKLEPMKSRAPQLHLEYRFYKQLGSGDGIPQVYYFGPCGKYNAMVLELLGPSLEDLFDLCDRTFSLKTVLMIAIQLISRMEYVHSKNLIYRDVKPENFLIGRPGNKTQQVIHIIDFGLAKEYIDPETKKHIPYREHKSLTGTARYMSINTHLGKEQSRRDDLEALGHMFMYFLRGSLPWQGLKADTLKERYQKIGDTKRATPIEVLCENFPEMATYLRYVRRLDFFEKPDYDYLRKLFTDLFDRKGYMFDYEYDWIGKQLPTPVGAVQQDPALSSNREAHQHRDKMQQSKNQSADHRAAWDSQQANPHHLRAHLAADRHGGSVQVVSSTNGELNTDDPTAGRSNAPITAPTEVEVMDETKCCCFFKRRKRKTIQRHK

[32] = test system: kinome (kinase panel); details: for Percent Control: 1000 nM

CN(C)C(=O)c1cc2cnc(Nc3ccc(-c4csc5c(=O)cc(N6CCOCC6)oc45)cc3)nc2n1C1CCCC1 [SRX3177]
remaining binding at 1 µM ([1]; RPS6KA5(Kin.Dom.1-N-terminal)): 100%
remaining binding at 1 µM ([1]; RPS6KA5(Kin.Dom.2-C-terminal)): 100%
remaining binding at 1 µM ([2]; RPS6KA4(Kin.Dom.1-N-terminal)): 100%
remaining binding at 1 µM ([2]; RPS6KA4(Kin.Dom.2-C-terminal)): 55%
remaining binding at 1 µM [3]: 49%
remaining binding at 1 µM [4]: 72%
remaining binding at 1 µM [5]: 100%
remaining binding at 1 µM [6]: 76%
remaining binding at 1 µM [7]: 94%
remaining binding at 1 µM [8]: 56%
remaining binding at 1 µM [9]: 59%
remaining binding at 1 µM [10]: 71%
remaining binding at 1 µM [11]: 39%
remaining binding at 1 µM [12]: 8.9%
remaining binding at 1 µM [13]: 83%
remaining binding at 1 µM [14]: 45%
remaining binding at 1 µM [15]: 41%
remaining binding at 1 µM [16]: 8.9%
remaining binding at 1 µM [17]: 73%
remaining binding at 1 µM [18]: 74%
remaining binding at 1 µM ([19]; RSK1(Kin.Dom.1-N-terminal) (RPS6KA1)): 100%
remaining binding at 1 µM ([19]; RSK1(Kin.Dom.2-C-terminal) (RPS6KA1)): 100%
remaining binding at 1 µM [20]: 98%
remaining binding at 1 µM [21]: 100%
remaining binding at 1 µM [22]: 91%
remaining binding at 1 µM [23]: 100%
remaining binding at 1 µM [24]: 42%
remaining binding at 1 µM [25]: 80%
remaining binding at 1 µM [26]: 90%
remaining binding at 1 µM [27]: 58%
remaining binding at 1 µM [28]: 100%
remaining binding at 1 µM [29]: 71%
remaining binding at 1 µM [30]: 56%
remaining binding at 1 µM [31]: 100%
specificity in KINOMEscan [32]: lack of off-targeting
Percent Control ([32]; EGFR(L747-E749del, A750P)): 100
Percent Control ([32]; EGFR(L747-S752del, P753S)): 65
Percent Control ([32]; EGFR(L747-T751del,Sins)): 75
Percent Control ([32]; FLT3(ITD)): 49
Percent Control ([32]; FLT3(ITD,D835V)): 27
Percent Control ([32]; FLT3(ITD,F691L)): 45
